# Results taken from patent US5545615A, “A method of inhibiting fertilization by alpha-1-antitrypsin or antithrombin III” (ZymoGenetics, Inc., priority 1994, dated 1996).
# Assays:
# [1] = test system: sperm and ova of hybrid mouse strain B6D2F1; assay: In vitro fertilization assay with mouse sperm and oocytes; type: cell-based
# Procedure: The ability of AAT to inhibit fertilization in vitro was tested using sperm and ova obtained from the hybrid mouse strain B6D2F1. This strain was chosen because a 75% to 85% in vitro fertilization rate is routine and the female mice respond well to superovulatory drugs, producing an average of 30 normal oocytes per animal.
# Oocytes were collected from 3- to 4-week-old female B6D2F1 mice. The animals received 5 international units of pregnant mare's serum gonadotropin to initiate follicular growth. After 48 hours, 5 international units of human chorionic gonadotropin were given to effect ovulation. Twelve hours after the last injection, oviducts were removed and oocytes were collected by puncture of the ampullary region, allowing the release of cumulus enclosed oocytes (cumulus clots) into 0.2 ml Fraser's medium (Fraser and Drury, Biol. Reprod. 13: 513-518, 1975) under paraffin oil. To randomize oocyte distribution, all cumulus clots were collected into one dish of medium and then placed into the fertilization medium. Oocytes were collected, on average, 15 minutes before sperm addition.
# Sperm were collected from the cauda epididymus of 9- to 14-week-old male B6D2F1 mice of proven fertility. Each epididymus contained approximately 40 million sperm with 70% to 80% motility. […]
# After the one-hour capacitation period, the sperm were counted by hemocytometer and […] sperm cells/ml were added to 0.2 ml Fraser's, medium (free of alpha-1-antitrypsin or containing AAT at the above concentrations) containing cumulus cell-enclosed oocytes. […]
# The above experiments were designed to analyze the effective inhibitory concentration of alpha-1-antitrypsin and to detect differences in fertilization rate resulting from the capacitation/acrosome reaction state of the sperm. […] Data are expressed as percent oocytes with two pronuclei and a second polar body. […]
# boar acrosin [2] = settings: cited from earlier work
# boar acrosin [3] = assay: SDS-PAGE / Western blot analysis of AAT-acrosin reaction mixture; type: binding
# Procedure: Lanes 1 and 6, proacrosin (^~ 5 ug) autoactivated to acrosin; Lanes 2 and 7, alpha-1-antrypsin (^~ 2 ug); Lanes 3 and 8, alpha-1-antitrypsin (~2 ug)+activated proacrosin (~5 ug) in 0.1M Tris, pH 8.0; Lanes 4 and 9, alpha-1-antitrypsin (^~ 2 ug)+activated proacrosin (^~ 5 ug) in 0.1M Tris, 0.05M CaCl2, pH 8.0; Lane 5, molecular weight markers.
# (§1) The nature of the reaction between AAT and acrosin was examined by electrophoresis under reducing and denaturing conditions and by Western blot analysis. AAT (2 μg) and activated boar proacrosin (5 μg) were incubated in a buffer containing 0.1M Tris, pH 8.0. Acrosin activity was inhibited 48% in the BAEE assay. […] Thus, all inhibition is accounted for by the formation of a covalent complex.
# human acrosin = settings: cited from earlier work
# boar acrosin [4] = assay: Spectrophotometric acrosin assay with substrate BAEE; type: biochemical
# Procedure: The effects of alpha-1-antitrypsin on purified acrosin were measured spectrophotometrically using the acrosin substrate N-α-benzoyl-L-arginine ethyl ester (BAEE) essentially as described by Polakoski and Zaneveld (Methods in Enzymology 45 (part B): 325, 1976). Boar acrosin was combined with AAT in 0.025M Tris, pH 7.0, containing BAEE. A control sample lacked AAT. The absorbance of the reaction mixture was monitored at 253 nm.
# as §1
# female mice = assay: In vivo inhibition of fertilization, intravaginal cream in female mice; design: species or system mouse; settings: individual mice 1-5; cream 100 mg AAT/20 ml, 100 μl intravaginal prior to copulation; sacrificed 12 days after copulation
# Procedure: For in vivo testing, a cream was prepared by dissolving 100 mg of recombinant AAT in 5 ml of phosphate-buffered saline (PBS; obtained from Sigma Chemical Co.). This solution was emulsified with 15 ml of K-Y Jelly (Johnson & Johnson) to give a final AAT concentration of 100 mg/20 ml.
# The cream (100 μl) was administered intravaginal to female mice using an Eppendorf pipette prior to copulation. Control females were untreated or received a control cream consisting of 100 mg bovine serum albumin in 5 ml of PBS plus 15 ml of K-Y Jelly. Copulation was confirmed in two of five BSA controls and four of five experimental mice. Mice were sacrificed 12 days after copulation and the number of fetuses was noted. Results, shown in Table 1, indicate that alpha-1-antitrypsin is an effective contraceptive agent.
# fertilization in vitro = settings: cited from earlier work
# acrosin = settings: cited from earlier work
substance,measurement,setting,value
alpha-1-antitrypsin [AAT],blocking of fertilization,"[1]; AAT in both capacitation and fertilization media, all concentrations except 0.01 mM (0.05-1 mM), FIG. 4",effective in blocking fertilization
same,concentrations of AAT effective in blocking fertilization,"[1]; capacitation in AAT-containing medium, fertilization in control medium, FIG. 3",greater than 0.2 mM
same,decrease of fertilization rate (percent oocytes with two pronuclei and a second polar body),"[1]; sperm capacitated in control medium, fertilization in AAT-containing medium, all concentrations tested (0.01-1 mM), control fertilization rate 77%, FIG. 2",about 50%
same,inhibition of boar acrosin in vitro,boar acrosin [2],inhibit
same,complex formation between inhibitor and enzyme (Western blot),"boar acrosin [3]; AAT 2 μg + activated boar proacrosin 5 μg, 0.1M Tris, pH 8.0, reducing and denaturing 12% SDS-PAGE",formation of a high molecular weight complex
same,complex formation between inhibitor and enzyme (Western blot),boar acrosin [3]; same analysis in the presence of 0.05M CaCl2,essentially identical results
same,inhibition of human acrosin in vitro,human acrosin,inhibit
same,Acrosin activity inhibited in the BAEE assay,"boar acrosin [4]; AAT 2 μg + activated boar proacrosin 5 μg, 0.1M Tris, pH 8.0",48%
same,"inhibition of acrosin in the test system (BAEE hydrolysis, absorbance at 253 nm)","boar acrosin [4]; boar acrosin combined with AAT in 0.025M Tris, pH 7.0, containing BAEE, amount of AAT tested",complete inhibition
same,Number of Fetuses,female mice,0
soybean trypsin inhibitor,effect on fertilization in vitro,fertilization in vitro,prevent fertilization in vitro
same,effect on acrosin activity,acrosin,block acrosin activity
